Values quoted from earlier work as cited in patent US11382851B2, “Hair dye composition containing at least one organic silicon compound, a direct dye and a film forming hydrophobic polymer” (Henkel AG & Co. KGaA, priority 2018, dated 2022).

Conditions: about 25° C.

SMILES | solubility in water | solubility in water (in words)
O=C([O-])c1c(Cl)c(Cl)c(Cl)c(Cl)c1-c1c2c(Br)cc(=O)c(Br)c-2oc2c(Br)c(O)cc(Br)c12.O=C([O-])c1c(Cl)c(Cl)c(Cl)c(Cl)c1-c1c2c(Br)cc(=O)c(Br)c-2oc2c(Br)c(O)cc(Br)c12.[Na+].[Na+] [Acid Red 92, disodium salt of 3,4,5,6-tetrachloro-2-(1,4,5,8-tetrabromo-6-hydroxy-3-oxoxanthen-9-yl)benzoic acid] | greater than 10 g/L | 
O=C([O-])C1=NN(c2ccc(S(=O)(=O)[O-])cc2)C(=O)C1N=Nc1ccc(S(=O)(=O)[O-])cc1.[Na+].[Na+].[Na+] (centres unmarked) [Acid Yellow 23, trisodium salt of 4,5-dihydro-5-oxo-1-(4-sulfophenyl)-4-((4-sulfophenyl)azo)-1H-pyrazole-3-carboxylic acid] |  | highly soluble in water
Nc1cc(S(=O)(=O)[O-])cc2cc(S(=O)(=O)[O-])c(N=Nc3ccccc3)c(O)c12.[Na+].[Na+] [Acid Red 33, disodium salt of 5-amino-4-hydroxy-3-(phenylazo)-naphthalene-2,7-disulphonate] | about 2.5 g/L | 
CCN(Cc1cccc(S(=O)(=O)[O-])c1)c1ccc(C(=C2C=CC(=[N+](CC)Cc3cccc(S(=O)(=O)[O-])c3)C=C2)c2ccccc2S(=O)(=O)[O-])cc1.[Na+].[Na+] [Acid Blue 9] | more than 20 % by weight | 
O=S(=O)([O-])c1ccc(N=Nc2c(O)ccc3ccccc23)cc1.[Na+] [Acid Orange 7, sodium salt of 4-[(2-hydroxy-1-naphthyl)azo]benzene sulphonate] | more than 7 g/L | 
